pIC50: −log10 of the molar value.
Experiments:
Type in all cases: biochemical
Blk(h) = Blk(h) (Homo sapiens (Human), UniProt P51451); assay: KinaseProfiler panel; set-up: dose or concentration left out as unconfirmed; details: activity remaining
MST4(h) = MST4(h) (Homo sapiens (Human), UniProt Q9P289); assay: KinaseProfiler panel; set-up: dose or concentration left out as unconfirmed; details: activity remaining
NEK6(h) = NEK6(h) (Homo sapiens (Human), UniProt Q9HC98); assay: KinaseProfiler panel; set-up: dose or concentration left out as unconfirmed; details: activity remaining
CaMKI(h) = CaMKI(h) (Homo sapiens (Human), UniProt Q14012); assay: KinaseProfiler panel; set-up: dose or concentration left out as unconfirmed; details: activity remaining
ZAK(h) = ZAK(h) (Homo sapiens (Human), UniProt Q9NYL2); assay: KinaseProfiler panel; set-up: dose or concentration left out as unconfirmed; details: activity remaining
NUAK2(h) = NUAK2(h) (Homo sapiens (Human), UniProt Q9H093); assay: KinaseProfiler panel; set-up: dose or concentration left out as unconfirmed; details: activity remaining
MLK4(h) = MLK4(h) (Homo sapiens (Human), UniProt Q5TCX8); assay: KinaseProfiler panel; set-up: dose or concentration left out as unconfirmed; details: activity remaining
Rsk4(h) = Rsk4(h) (Homo sapiens (Human), UniProt Q9UK32); assay: KinaseProfiler panel; details: activity remaining
MLK2(h) = MLK2(h) (Homo sapiens (Human), UniProt Q02779); assay: KinaseProfiler panel; set-up: dose or concentration left out as unconfirmed; details: activity remaining
MYO3B(h) = MYO3B(h) (Homo sapiens (Human), UniProt Q8WXR4); assay: KinaseProfiler panel; set-up: dose or concentration left out as unconfirmed; details: activity remaining
LOK(h) = LOK(h) (Homo sapiens (Human), UniProt O94804); assay: KinaseProfiler panel; set-up: dose or concentration left out as unconfirmed; details: activity remaining
MAK(h) = MAK(h) (Homo sapiens (Human), UniProt P20794); assay: KinaseProfiler panel; set-up: dose or concentration left out as unconfirmed; details: activity remaining
MAP4K4(h) = MAP4K4(h) (Homo sapiens (Human), UniProt O95819); assay: KinaseProfiler panel; set-up: dose or concentration left out as unconfirmed; details: activity remaining
MARK4(h) = MARK4(h) (Homo sapiens (Human), UniProt Q96L34); assay: KinaseProfiler panel; set-up: dose or concentration left out as unconfirmed; details: activity remaining
LKB1(h) = LKB1(h) (Homo sapiens (Human), UniProt Q15831); assay: KinaseProfiler panel; set-up: dose or concentration left out as unconfirmed; details: activity remaining
ErbB4(h) = ErbB4(h) (Homo sapiens (Human), UniProt Q15303); assay: KinaseProfiler panel; set-up: dose or concentration left out as unconfirmed; details: activity remaining
Pyk2(h) = Pyk2(h) (Homo sapiens (Human), UniProt Q14289); assay: KinaseProfiler panel; set-up: dose or concentration left out as unconfirmed; details: activity remaining
CDKL1(h) = CDKL1(h) (Homo sapiens (Human), UniProt Q00532); assay: KinaseProfiler panel; set-up: dose or concentration left out as unconfirmed; details: activity remaining
CK1δ(h) = CK1δ(h) (Homo sapiens (Human), UniProt P48730); assay: KinaseProfiler panel; set-up: dose or concentration left out as unconfirmed; details: activity remaining
LRRK2(h) = LRRK2(h) (Homo sapiens (Human), UniProt Q5S007); assay: KinaseProfiler panel; set-up: dose or concentration left out as unconfirmed; details: activity remaining
SRPK1(h) = SRPK1(h) (Homo sapiens (Human), UniProt Q96SB4); assay: KinaseProfiler panel; set-up: dose or concentration left out as unconfirmed; details: activity remaining
GRK6(h) = GRK6(h) (Homo sapiens (Human), UniProt P43250); assay: KinaseProfiler panel; set-up: dose or concentration left out as unconfirmed; details: activity remaining
CDK1/cyclinB(h) = CDK1/cyclinB(h) (Homo sapiens (Human), UniProt P06493); assay: KinaseProfiler panel; set-up: dose or concentration left out as unconfirmed; details: activity remaining
ALK(h) = ALK(h) (Homo sapiens (Human), UniProt Q9UM73); assay: KinaseProfiler panel; details: activity remaining
mTOR(h) = mTOR(h) (Homo sapiens (Human), UniProt P42345); assay: KinaseProfiler panel; set-up: dose or concentration left out as unconfirmed; details: activity remaining
BIKE = BIKE (Homo sapiens (Human), UniProt Q9NSY1); assay: KinaseProfiler radiometric assay (16-044KP); details: mean of at least two independent experiments
Excerpt: In another aspect, disclosed is a method of inhibiting citron kinase in a sample, comprising contacting the sample with a compound described herein (e.g., a compound of formula (I) or a pharmaceutically acceptable salt thereof), or a pharmaceutical composition described herein (e.g., a pharmaceutical composition comprising a compound of formula (I) or a pharmaceutically acceptable salt thereof), in an amount effective to inhibit citron kinase. In some embodiments, the step of contacting the sample with the compound comprises administering the compound to a subject (e.g., a subject) suffering from cancer. Methods of determining kinase inhibition are well known in the art. For example, kinase activity of an enzyme and the inhibitory capacity of a test compound can be determined by measuring enzyme specific phosphorylation of a substrate. Commercial assays and kits can be employed. For example, kinase inhibition can be determined using a radiometric binding assay, such as using KinaseProfiler™ technology (Eurofins Discovery). This assay method directly detects product formation without the use of modified substrates or coupling enzymes. […]
The effect of various compounds on the inhibition of other kinases has also been determined. Table 2 reports measured IC50 values; value units are nanomolar inhibition.

Pyk2(h), sequence (Q14289 whole entry): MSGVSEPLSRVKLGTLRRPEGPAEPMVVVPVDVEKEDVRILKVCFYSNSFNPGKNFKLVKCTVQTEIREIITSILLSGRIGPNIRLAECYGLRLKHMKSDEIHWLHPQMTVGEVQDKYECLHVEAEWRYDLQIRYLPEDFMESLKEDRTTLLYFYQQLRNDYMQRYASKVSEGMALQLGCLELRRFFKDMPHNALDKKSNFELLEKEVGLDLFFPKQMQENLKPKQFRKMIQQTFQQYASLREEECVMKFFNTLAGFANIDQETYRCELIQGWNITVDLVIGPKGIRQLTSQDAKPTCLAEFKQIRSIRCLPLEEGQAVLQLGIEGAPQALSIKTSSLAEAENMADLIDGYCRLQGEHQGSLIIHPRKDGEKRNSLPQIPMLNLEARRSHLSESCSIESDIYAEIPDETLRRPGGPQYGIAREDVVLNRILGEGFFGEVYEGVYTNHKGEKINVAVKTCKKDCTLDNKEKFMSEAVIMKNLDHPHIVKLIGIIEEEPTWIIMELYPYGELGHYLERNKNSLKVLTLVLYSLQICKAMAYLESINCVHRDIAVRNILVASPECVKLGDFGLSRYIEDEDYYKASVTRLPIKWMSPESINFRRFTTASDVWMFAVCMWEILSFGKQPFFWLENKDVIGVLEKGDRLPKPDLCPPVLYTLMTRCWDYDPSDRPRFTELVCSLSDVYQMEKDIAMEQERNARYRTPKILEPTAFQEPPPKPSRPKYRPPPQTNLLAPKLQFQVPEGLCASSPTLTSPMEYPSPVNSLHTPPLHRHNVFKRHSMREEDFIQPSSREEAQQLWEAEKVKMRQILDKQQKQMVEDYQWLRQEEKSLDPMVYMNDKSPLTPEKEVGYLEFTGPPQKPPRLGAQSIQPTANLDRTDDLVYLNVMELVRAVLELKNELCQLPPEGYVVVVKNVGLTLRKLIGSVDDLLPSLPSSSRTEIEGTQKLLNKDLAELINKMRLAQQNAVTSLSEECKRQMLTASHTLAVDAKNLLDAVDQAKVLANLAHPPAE
BIKE, sequence (Q9NSY1 whole entry): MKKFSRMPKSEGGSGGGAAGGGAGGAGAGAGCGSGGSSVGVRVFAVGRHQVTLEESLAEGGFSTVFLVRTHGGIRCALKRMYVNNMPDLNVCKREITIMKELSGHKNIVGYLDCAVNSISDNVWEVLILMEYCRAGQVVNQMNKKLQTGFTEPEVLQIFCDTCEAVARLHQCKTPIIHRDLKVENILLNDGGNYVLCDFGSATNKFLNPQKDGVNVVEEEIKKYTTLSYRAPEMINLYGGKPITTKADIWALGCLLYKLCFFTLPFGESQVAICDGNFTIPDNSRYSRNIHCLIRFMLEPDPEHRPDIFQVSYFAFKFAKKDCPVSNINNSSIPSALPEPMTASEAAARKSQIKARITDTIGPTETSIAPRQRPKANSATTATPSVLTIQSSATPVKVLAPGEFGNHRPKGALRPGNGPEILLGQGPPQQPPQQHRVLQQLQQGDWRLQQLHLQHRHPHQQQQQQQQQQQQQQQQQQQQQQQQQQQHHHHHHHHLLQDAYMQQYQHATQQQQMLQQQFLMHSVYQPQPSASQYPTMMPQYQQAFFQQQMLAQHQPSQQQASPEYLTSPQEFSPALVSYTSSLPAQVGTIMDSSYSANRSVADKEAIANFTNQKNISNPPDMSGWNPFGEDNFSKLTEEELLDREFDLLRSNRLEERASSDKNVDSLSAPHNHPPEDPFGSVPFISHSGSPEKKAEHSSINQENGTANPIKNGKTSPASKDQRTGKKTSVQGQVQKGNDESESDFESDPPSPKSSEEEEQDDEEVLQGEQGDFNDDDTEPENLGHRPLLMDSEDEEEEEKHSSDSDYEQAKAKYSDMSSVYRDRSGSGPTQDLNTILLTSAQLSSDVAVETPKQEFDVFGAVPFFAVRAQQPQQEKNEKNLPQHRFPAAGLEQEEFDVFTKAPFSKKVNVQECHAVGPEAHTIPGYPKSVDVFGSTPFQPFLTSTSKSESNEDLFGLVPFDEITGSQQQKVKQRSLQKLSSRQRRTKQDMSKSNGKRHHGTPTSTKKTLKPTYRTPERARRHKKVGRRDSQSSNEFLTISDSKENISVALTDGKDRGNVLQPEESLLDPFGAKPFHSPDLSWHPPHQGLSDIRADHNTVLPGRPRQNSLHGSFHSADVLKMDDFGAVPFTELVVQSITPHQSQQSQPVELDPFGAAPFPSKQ
ErbB4(h), sequence (Q15303 26-1308): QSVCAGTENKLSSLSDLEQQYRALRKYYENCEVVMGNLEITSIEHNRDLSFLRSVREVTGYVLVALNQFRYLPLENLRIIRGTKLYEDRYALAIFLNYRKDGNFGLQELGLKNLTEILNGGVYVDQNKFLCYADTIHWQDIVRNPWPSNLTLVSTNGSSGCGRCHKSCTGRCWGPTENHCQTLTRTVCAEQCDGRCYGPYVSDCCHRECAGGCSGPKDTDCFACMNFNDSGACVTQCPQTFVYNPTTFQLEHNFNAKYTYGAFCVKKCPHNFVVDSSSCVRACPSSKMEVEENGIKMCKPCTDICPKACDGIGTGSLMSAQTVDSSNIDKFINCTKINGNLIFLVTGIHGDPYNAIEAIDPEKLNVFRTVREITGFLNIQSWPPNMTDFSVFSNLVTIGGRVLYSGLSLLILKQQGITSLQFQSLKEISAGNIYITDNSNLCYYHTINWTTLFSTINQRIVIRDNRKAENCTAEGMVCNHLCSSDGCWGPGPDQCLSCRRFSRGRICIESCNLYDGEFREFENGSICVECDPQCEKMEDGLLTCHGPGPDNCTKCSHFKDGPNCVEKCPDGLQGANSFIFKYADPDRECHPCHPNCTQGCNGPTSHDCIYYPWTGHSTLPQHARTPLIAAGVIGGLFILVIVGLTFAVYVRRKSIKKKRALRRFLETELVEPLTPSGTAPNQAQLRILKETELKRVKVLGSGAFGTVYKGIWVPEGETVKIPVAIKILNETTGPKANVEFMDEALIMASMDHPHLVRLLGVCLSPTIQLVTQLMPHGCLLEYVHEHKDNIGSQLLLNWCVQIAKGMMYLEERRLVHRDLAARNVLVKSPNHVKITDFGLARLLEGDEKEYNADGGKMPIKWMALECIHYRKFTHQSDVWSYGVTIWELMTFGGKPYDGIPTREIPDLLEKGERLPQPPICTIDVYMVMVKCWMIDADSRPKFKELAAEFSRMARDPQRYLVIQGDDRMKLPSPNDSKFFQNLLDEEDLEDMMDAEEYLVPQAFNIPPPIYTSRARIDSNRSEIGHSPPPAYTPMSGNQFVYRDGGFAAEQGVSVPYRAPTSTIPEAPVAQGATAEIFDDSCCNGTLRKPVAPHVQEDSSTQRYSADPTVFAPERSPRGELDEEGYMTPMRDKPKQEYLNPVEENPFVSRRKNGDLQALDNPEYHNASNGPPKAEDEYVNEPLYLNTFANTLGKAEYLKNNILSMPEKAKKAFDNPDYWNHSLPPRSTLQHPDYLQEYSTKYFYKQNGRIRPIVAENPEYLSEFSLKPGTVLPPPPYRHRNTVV
CDK1/cyclinB(h), sequence (P06493 whole entry): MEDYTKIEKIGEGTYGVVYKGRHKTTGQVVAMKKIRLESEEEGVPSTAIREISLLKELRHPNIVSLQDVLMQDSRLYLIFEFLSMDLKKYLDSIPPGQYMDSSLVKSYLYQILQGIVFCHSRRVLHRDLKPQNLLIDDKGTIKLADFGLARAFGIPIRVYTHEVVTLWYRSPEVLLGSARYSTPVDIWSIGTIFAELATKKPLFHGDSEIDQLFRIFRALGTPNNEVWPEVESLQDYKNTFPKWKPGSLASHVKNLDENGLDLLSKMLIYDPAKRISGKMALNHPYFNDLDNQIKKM
CDK1/cyclinB(h), sequence (P14635 whole entry partner): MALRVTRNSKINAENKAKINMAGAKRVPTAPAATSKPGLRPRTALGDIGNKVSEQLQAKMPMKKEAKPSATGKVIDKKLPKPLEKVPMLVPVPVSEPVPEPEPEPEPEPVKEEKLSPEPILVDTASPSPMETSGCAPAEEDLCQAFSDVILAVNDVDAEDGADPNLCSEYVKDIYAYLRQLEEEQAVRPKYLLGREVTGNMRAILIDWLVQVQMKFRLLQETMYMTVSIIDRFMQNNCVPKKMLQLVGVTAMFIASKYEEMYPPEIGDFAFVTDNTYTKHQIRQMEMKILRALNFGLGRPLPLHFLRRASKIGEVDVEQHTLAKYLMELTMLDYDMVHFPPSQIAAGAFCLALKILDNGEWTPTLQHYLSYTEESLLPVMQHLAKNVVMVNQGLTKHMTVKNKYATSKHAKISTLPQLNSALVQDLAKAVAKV
MARK4(h), sequence (Q96L34 whole entry): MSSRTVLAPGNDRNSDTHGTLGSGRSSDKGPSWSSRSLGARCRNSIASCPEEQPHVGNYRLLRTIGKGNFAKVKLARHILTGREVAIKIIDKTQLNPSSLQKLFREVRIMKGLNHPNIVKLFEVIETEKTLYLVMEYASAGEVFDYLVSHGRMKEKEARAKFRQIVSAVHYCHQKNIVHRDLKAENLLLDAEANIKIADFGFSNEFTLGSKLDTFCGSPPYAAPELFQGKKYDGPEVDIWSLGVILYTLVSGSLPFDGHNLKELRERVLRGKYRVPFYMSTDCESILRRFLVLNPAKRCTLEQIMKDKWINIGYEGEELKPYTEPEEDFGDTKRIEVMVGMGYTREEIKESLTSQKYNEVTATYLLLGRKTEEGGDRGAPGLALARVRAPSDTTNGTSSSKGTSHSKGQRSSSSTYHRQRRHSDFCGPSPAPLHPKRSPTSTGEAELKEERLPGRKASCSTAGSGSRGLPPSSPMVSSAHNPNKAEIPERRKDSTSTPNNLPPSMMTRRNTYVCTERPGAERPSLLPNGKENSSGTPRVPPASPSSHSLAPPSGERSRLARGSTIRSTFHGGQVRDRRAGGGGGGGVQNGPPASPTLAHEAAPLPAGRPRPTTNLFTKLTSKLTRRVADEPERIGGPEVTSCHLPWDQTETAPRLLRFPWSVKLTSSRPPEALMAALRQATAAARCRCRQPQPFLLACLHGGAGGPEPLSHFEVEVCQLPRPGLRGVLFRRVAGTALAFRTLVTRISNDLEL

Cc1cc2c(-c3ccc(NC(=O)[C@H](N)CC(C)(C)C)cc3C)ccnc2[nH]1 [Compound F-90, (2R)-2-Amino-4,4-dimethyl-N-[3-methyl-4-(2-methyl-1H-pyrrolo[2,3-b]pyridin-4-yl)phenyl]pentanamide] was tested, and the “% Activity” value (Blk(h)) was 88%, the “% Activity” value (MST4(h)) was 106% and the “% Activity” value (NEK6(h)) was 86%. The “% Activity” value (CaMKI(h)) was 104%, the “% Activity” value (ZAK(h)) was 83% and the “% Activity” value (NUAK2(h)) was 72%. For the same compound, the “% Activity” value (MLK4(h)) was 112%, the “% Activity” value (Rsk4(h)) was 101% and the “% Activity” value (MLK2(h)) was 77%. The “% Activity” value (MYO3B(h)) was 79%, the “% Activity” value (LOK(h)) was 96% and the “% Activity” value (MAK(h)) was 120%. For the same compound, the “% Activity” value (MAP4K4(h)) was 101%, the “% Activity” value (MARK4(h)) was 92% and the “% Activity” value (LKB1(h)) was 99%. For the same compound, the “% Activity” value (ErbB4(h)) was 94%, the “% Activity” value (Pyk2(h)) was 76% and the “% Activity” value (CDKL1(h)) was 99%. The “% Activity” value (CK1δ(h)) was 96%, the “% Activity” value (LRRK2(h)) was 100% and the “% Activity” value (SRPK1(h)) was 95%. For the same compound, the “% Activity” value (GRK6(h)) was 95%, the “% Activity” value (CDK1/cyclinB(h)) was 94% and the “% Activity” value (ALK(h)) was 77%. The “% Activity” value (mTOR(h)) was 95% and the pIC50 (BIKE) was 6.04.

Reference: patent publication US20250243196A1, “CITRON KINASE INHIBITORS” (The Cleveland Clinic Foundation, priority 2021, published 2025)
